In US20120183976A1, “METHODS OF ASSESSING ACTIVITY OF A POLYSACCHARIDE COMPOSITION” (priority 2009, published 2012):

Test system: C170HM2 human colorectal tumor cells
Experiment: C170HM2 colon cancer metastasis to the liver model
Type: in vivo, MF1 nude (nu/nu) athymic mice
Conditions: 25 mg/kg i.v. cycled on days 1, 3, 5, 7
Method: Liver metastasis was initiated by intraperitoneal injection of C170HM2 human colorectal tumor cells into male MF1 nude (nu/nu) athymic mice. 5FU/leucovorin was used as a positive control.
C170HM2 cells were maintained in vitro in RPMI culture medium (Sigma) containing 10% (v/v) heat inactivated fetal bovine serum and 2 mM L-glutamine at 37° C. in 5% CO2 and humidified conditions. Cells from sub-confluent monolayers were harvested with 0.025% EDTA, washed in culture medium and re-suspended in sterile phosphate buffered saline, pH 7.4 (PBS) for in vivo administration. 1.5×10^6 cells in a volume of 1 ml were injected intraperitoneally into 65 mice, and the mice were allocated into treatment groups as below.
Group 1: n=10 Vehicle control Group 2: n=10 25 mg/kg 5FU/leucovorin i.v. cycled on days 1, 3, 5, 7 Group 3: n=10 5 mg/kg compound 1 (Dalteparin) s.c. once daily Group 4: n=10 5 mg/kg compound 2 (M402) s.c. once daily Group 5: n=10 15 mg/kg compound 2 s.c. once daily Group 6: n=10 30 mg/kg compound 2 s.c. once daily Group 7: n=5 Untreated
Treatment was initiated on day 1 following cell injection and continued until day 35 or until the clinical condition of the animal required termination. Groups 5 and 6 missed one dose on day 5. […]
The study was terminated on day 35, and the tumors in the liver were excised and weighed. The numbers of lung nodules are also counted.

Q: Which results are given for 5FU/leucovorin?
A: Mean tumor area (day 35): 13.12 mm^2; Mean tumor weight (liver tumors day 35): 0.037 g
